Patent publication US6846505B2, “Anti-oxidant” (Danisco A/S, priority 1999, dated 2005)
Each block holds one compound with its values, some of them ahead of it.

How the values were obtained:
apple slices = assay: Browning of apple slices (Example 1, FIG. 2); conditions: prolonged period, weeks or months, at room temperature
Description: Compounds of the present invention were investigated as an anti-browning agent in vegetable and fruit products.

[1] = tested on: mushroom polyphenol oxidase (PPO); assay: Polyphenol oxidase (PPO) inhibition, tyrosine substrate, absorbance at 475 nm; assay type: biochemical; conditions: for OD475 nm (browning product formation): 10 ppm APP, 24° C., pH 6.5
Method: Principle and Goal: PPO is one of the enzymes involved in oxidative browning of vegetables and fruits. […] Blank: To 20 μl PPO (20 units, from mushroom. Sigma product. EC 1.14.18.1) was added 0.45 ml water, 0.43 ml phosphate buffer (0.2M Na2HPO4—NaH2PO4, pH6.5), so the final volume was 0.9 ml Control: To 20 μl PPO was added 0.15 ml water, 0.43 ml phosphate buffer (0.2M Na2HPO4—NaH2PO4, pH6.5), then 0.3 ml tyrosine (1 mM, BDH product). Time course progress of the reaction was monitored at room temperature (24° C.) at 475 nm by using a Perkin Elmer UV/VIS Lambda 18 spectrophotometer. Test: To 20 μl PPO was added 0.143 ml water, 7 μl APP (final 10 ppm), 0.430 ml phosphate buffer (0.2M Na2HPO4—NaH2PO4, pH6.5), then 0.3 ml tyrosine (1 mM, BDH product). Time course progress of the reaction was monitored as above. Table 1. Inhibition of 10 ppm APP on polyphenol oxidase (PPO) as indicated by very slow increase at absorbance 475nm compared to control. Higher values at OD475 nm indicate more browning product formation.

[2] = β-carotene method: de-coloration of beta-carotene by oxygen and oxidative intermediates of linoleic acid (OD470 nm)
Description: (§1) The following five methods were used to evaluate compounds in accordance with the present invention. […] Note: both MDA and 4-HNE are the oxidation products of polyunsaturated fatty acids from lipids. • 3. β-carotene method was used to measure the protection of β-carotene oxidation by lipid peroxide in the presence of an added anti-oxidant. • 4. DPPH (1,1-diphenyl-2-picrylhydrazyl) method was used to measure the radical scavenging activity of an anti-oxidant towards the radical DPPH. • 5. polyphenol oxidase (PPO) method was used to measure the inhibition of polyphenol oxidase in vegetables, fruits and mushrooms.
Principle and Goal: Carotenes are one of the pigments which may be used to give a healthy colour to food or drinks. They are therefore used as food colorant. β-Carotene is also the precursor for vitamin A. Carotenoid molecules are highly unsaturated and are prone to oxidative degradation; which is stimulated by light, enzymes, metals, and co-oxidation with lipid hydroperoxides.
In the system used, beta-carotene was exposed to oxygen and the oxidative intermediates of linoleic acid.
The assay was performed according to H. E. Miller (JAOSC (1970) 48: 91). The assay system consisted of beta-carotene, linoleic acid, and Tween 40. In the blank, no anti-oxidant was added, while in the tests, either APP in a concentration of 2.5-25 ppm or sodium ascorbate in a concentration of 100-500 ppm was added. The mixtures were incubated in the dark for the time and temperature indicated (see Table 2.1 and 2.2). The absorbance was then measured at 470 nm. The absorbance provided an indication of beta-carotene content. Lower OD470 nm values indicate more degradation of beta-carotene.

[3] = LPO method: MDA and 4HNE from oxidation of linoleic acid (OD586 nm); conditions: for OD586 nm of the ascorbate test / OD586 nm of the APP test: 24° C. in the dark for 10 days
Description: as §1
Principle and Goal: A major area for use of antioxidants in food-related products are their ability to prevent the oxidation of polyunsaturated fatty acids in lipids. The oxidation of lipids and fatty acids is a major problem in food.
Assay Conditions: The assay of MDA and 4HNE was performed by the LPO method, using the assay kit from OXIS International, Inc. (Portland, Oreg., USA) and according to their protocol. The assay mixture for the blank contained linoleic acid and Tween 40. For the tests, APP or sodium ascorbate was added. After incubation at 24° C. in the dark for 10 days, the samples were assayed for MDA and 4HNE contents as indicated by their absorbance at 586 nm as given in Table 3. Higher OD586 nm values indicate higher content of MDA and 4HNE, and therefore more degradation of linoleic acid.

[4] = disclosed tests of reference [3]; cited from earlier work

Inhibition of PPO (in words) [1]: inhibited
SMILES: O=c1cc(CO)occ1O [kojic acid]
Prevention of browning of apple slices (apple slices): completely prevent browning

SMILES: O=C1O[C@H]([C@@H](O)CO)C(O)=C1O [ascorbic acid, reference compound]
Prevention of browning of apple slices (apple slices): unable to do so

SMILES: O=C1O[C@H]([C@@H](O)CO)C([O-])=C1O.[Na+] [Sodium ascorbate, sodium ascorbate, reference compound]
The OD470 nm of the ascorbate test ([2]; 100 ppm, 37° C. for 161 min in the dark): −0.01
The OD470 nm of the ascorbate test ([2]; 100 ppm, 37° C. for 161 min then 24° C. for 17.5 hours in the dark): −0.006
The OD470 nm of the ascorbate test ([2]; 300 ppm, 37° C. for 161 min in the dark): 0.096
The OD470 nm of the ascorbate test ([2]; 300 ppm, 37° C. for 161 min then 24° C. for 17.5 hours in the dark): 0.102
The OD470 nm of the ascorbate test ([2]; 500 ppm, 37° C. for 161 min in the dark): 0.191
The OD470 nm of the ascorbate test ([2]; 500 ppm, 37° C. for 161 min then 24° C. for 17.5 hours in the dark): 0.200
OD586 nm of the ascorbate test ([3]; 100 ppm): 0.279
OD586 nm of the ascorbate test ([3]; 300 ppm): 0.097
OD586 nm of the ascorbate test ([3]; 500 ppm): 0.032

Inhibition of PPO (in words) [1]: efficient inhibitor
OD475 nm (browning product formation) ([1]; reaction time 0 min): 0
OD475 nm (browning product formation) ([1]; reaction time 1 min): 0
OD475 nm (browning product formation) ([1]; reaction time 3 min): 0
OD475 nm (browning product formation) ([1]; reaction time 5 min): 0
OD475 nm (browning product formation) ([1]; reaction time 7 min): 0.0005
OD475 nm (browning product formation) ([1]; reaction time 9 min): 0.0017
OD475 nm (browning product formation) ([1]; reaction time 11 min): 0.0033
OD475 nm (browning product formation) ([1]; reaction time 13 min): 0.0056
OD475 nm (browning product formation) ([1]; reaction time 15 min): 0.0082
OD475 nm (browning product formation) ([1]; reaction time 17 min): 0.0122
OD475 nm (browning product formation) ([1]; reaction time 19 min): 0.0178
OD475 nm (browning product formation) ([1]; reaction time 20 min): 0.0209
SMILES: O=C1C(O)=COC(CO)C1O [APP, 1,5-Anhydro-D-glycero-hex-1-en-3-ulose]
Effect on oxidative de-coloration of beta-carotene (in words) [2]: delayed the oxidative de-coloration of beta-carotene
The OD470 nm of the APP test ([2]; 2.5 ppm, 37° C. for 161 min in the dark, lower OD = more degradation): 0.264
The OD470 nm of the APP tests ([2]; 2.5 ppm, 37° C. for 161 min then 24° C. for 17.5 hours in the dark): 0.173
The OD470 nm of the APP test ([2]; 6.2 ppm, 37° C. for 161 min in the dark): 0.314
The OD470 nm of the APP tests ([2]; 6.2 ppm, 37° C. for 161 min then 24° C. for 17.5 hours in the dark): 0.270
The OD470 nm of the APP test ([2]; 12.5 ppm, 37° C. for 161 min in the dark): 0.322
The OD470 nm of the APP tests ([2]; 12.5 ppm, 37° C. for 161 min then 24° C. for 17.5 hours in the dark): 0.274
The OD470 nm of the APP test ([2]; 25 ppm, 37° C. for 161 min in the dark): 0.326
The OD470 nm of the APP tests ([2]; 25 ppm, 37° C. for 161 min then 24° C. for 17.5 hours in the dark): 0.263
Effectiveness relative to ascorbic acid in preventing the de-coloration of β-carotene ([2]; FIG. 4): around 100 times
Effect on oxidation of linoleic acid (in words) [3]: able to delay the oxidation of linoleic acid
OD586 nm of the APP test ([3]; 2.5 ppm, higher OD = more MDA and 4HNE): 0.358
Efficiency in delaying the oxidative degradation of linoleic acid compared with ascorbic acid ([3]; 6.2 ppm APP, FIG. 5): almost as efficient as 300 ppm ascorbic acid
OD586 nm of the APP test ([3]; 6.2 ppm): 0.100
OD586 nm of the APP test ([3]; 12.5 ppm): 0.084
Function as an antibiotic [4]: did not function satisfactorily as an antibiotic
